Legend:
Assay in all cases: in vitro susceptibility, MIC by mini broth dilution
Format in all cases: cell-based
[1] = system: Staphylococcus aureus CVCC26003; details: strain CVCC26003
Method in brief: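 S. aureus CVCC26003 was revived and subcultured twice, 20 h each at 35° C, on solid medium, then diluted 1:200 in CAMHB liquid medium. Compounds received an 11-step two-fold DMSO dilution in parallel duplicate rows. MIC was read by mini broth dilution per NCCLS guidance.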

[2] = system: Pasteurella multocida CVCC399; details: strain CVCC399
Method in brief: (§1)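 NCCLS-based mini broth dilution; inoculum from twice-streaked 35° C/20 h cultures, 1:200 in broth; compound two-fold series in DMSO, 11 steps, duplicates.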

[3] = system: Haemophilus parasuis
Method in brief: as §1

[4] = system: Actinobacillus pleuropneumoniae CVCC262; details: strain CVCC262
Method in brief: as §1

[5] = system: Streptococcus equines CVCC556; details: strain CVCC556
Method in brief: as §1

MIC values, Staphylococcus aureus CVCC26003 [1]	MIC values, Pasteurella multocida CVCC399 [2]	MIC values, Haemophilus parasuis [3]	MIC values, Actinobacillus pleuropneumoniae CVCC262 [4] [ug/mi]	MIC values, Streptococcus equines CVCC556 [5]	SMILES
8 ug/mi	≦0.25 ug/mi	8 ug/mi	16	≦0.25 ug/mi	CC[C@H]1OC(=O)[C@H](C)[C@@H](O[C@H]2C[C@@](C)(OC)[C@](O)(CNCc3ccco3)[C@H](C)O2)[C@H](C)[C@@H](O[C@@H]2O[C@H](C)C[C@H](N(C)C)[C@H]2O)[C@](C)(O)C[C@@H](C)NC[C@H](C)[C@@H](O)[C@]1(C)O [syzx-71, (2R,3S,4R,5S,8R,10R,11R,12S,13S,14R)-13-[(2,6-dideoxy-3-C-methyl-3-O-methyl-4-C-[(2-furfuryl-amino)-methyl]-α-L-ribopyranosyl)oxy]-2-ethyl-3,4,10-trihydroxy-3,5,8,10,12,14-hexamethyl-11-[[3,4,6-trideoxy-3-(dimethylamino)-β-D-xylo-hexopyranosy]oxy]-1-oxa-7-azacyclopentadecan-15-one]
1 ug/mi	1 ug/mi	0.25 ug/mi	16	≦0.25 ug/mi	CC[C@H]1OC(=O)[C@H](C)[C@@H](O[C@H]2C[C@@](C)(OC)[C@](O)(CNCc3cccc(N)c3)[C@H](C)O2)[C@H](C)[C@@H](O[C@@H]2O[C@H](C)C[C@H](N(C)C)[C@H]2O)[C@](C)(O)C[C@@H](C)NC[C@H](C)[C@@H](O)[C@]1(C)O [syzx-72, (2R,3S,4R,5S,8R,10R,11R,12S,13S,14R)-13-[(2,6-dideoxy-3-C-methyl-3-O-methyl-4-C-[(3-aminobenzyl-amino)-methyl]-α-L-ribopyranosyl)oxy]-2-ethyl-3,4,10-trihydroxy-3,5,8,10,12,14-hexamethyl-11-[[3,4,6-trideoxy-3-(dimethylamino)-β-D-xylo-hexopyranosy]oxy]-1-oxa-7-azacyclopentadecan-15-one]
1 ug/mi	2 ug/mi	1 ug/mi	1	0.5 ug/mi	CC[C@H]1OC(=O)[C@H](C)[C@@H](O[C@H]2C[C@@](C)(OC)[C@](O)(C=NNc3ccccc3)[C@H](C)O2)[C@H](C)[C@@H](O[C@@H]2O[C@H](C)C[C@H](N(C)C)[C@H]2O)[C@](C)(O)C[C@@H](C)NC[C@H](C)[C@@H](O)[C@]1(C)O [syzx-73, (2R,3S,4R,5S,8R,10R,11R,12S,13S,14R)-13-[(2,6-dideoxy-3-C-methyl-3-O-methyl-4-C-[(phenylhydrazono)-methyl]-α-L-ribopyranosyl)oxy]-2-ethyl-3,4,10-trihydroxy-3,5,8,10,12,14-hexamethyl-11-[[3,4,6-trideoxy-3-(dimethylamino)-β-D-xylo-hexopyranosy]oxy]-1-oxa-7-azacyclopentadecan-15-one]
1 ug/mi	1 ug/mi	2 ug/mi	1	0.5 ug/mi	CC[C@H]1OC(=O)[C@H](C)[C@@H](O[C@H]2C[C@@](C)(OC)[C@](O)(CNCCc3c[nH]c4ccccc34)[C@H](C)O2)[C@H](C)[C@@H](O[C@@H]2O[C@H](C)C[C@H](N(C)C)[C@H]2O)[C@](C)(O)C[C@@H](C)NC[C@H](C)[C@@H](O)[C@]1(C)O [syzx-74, (2R,3S,4R,5S,8R,10R,11R,12S,13S,14R)-13-[(2,6-dideoxy-3-C-methyl-3-O-methyl-4-C-{[2-(1H-indol-3-yl)-ethylamino]-methyl}-α-L-ribopyranosyl)oxy]-2-ethyl-3,4,10-trihydroxy-3,5,8,10,12,14-hexamethyl-11-[[3,4,6-trideoxy-3-(dimethylamino)-β-D-xylo-hexopyranosy]oxy]-1-oxa-7-azacyclopentadecan-15-one]
4 ug/mi	8 ug/mi	4 ug/mi	64	4 ug/mi	CC[C@H]1OC(=O)[C@H](C)[C@@H](O[C@H]2C[C@@](C)(OC)[C@](O)(CNCCCCl)[C@H](C)O2)[C@H](C)[C@@H](O[C@@H]2O[C@H](C)C[C@H](N(C)C)[C@H]2O)[C@](C)(O)C[C@@H](C)NC[C@H](C)[C@@H](O)[C@]1(C)O [syzx-75, (2R,3S,4R,5S,8R,10R,11R,12S,13S,14R)-13-[(2,6-dideoxy-3-C-methyl-3-O-methyl-4-C-[(3-chloropropyl-amino)-methyl]-α-L-ribopyranosyl)oxy]-2-ethyl-3,4,10-trihydroxy-3,5,8,10,12,14-hexamethyl-11-[[3,4,6-trideoxy-3-(dimethylamino)-β-D-xylo-hexopyranosy]oxy]-1-oxa-7-azacyclopentadecan-15-one]
2 ug/mi	4 ug/mi	1 ug/mi	64	2 ug/mi	CC[C@H]1OC(=O)[C@H](C)[C@@H](O[C@H]2C[C@@](C)(OC)[C@](O)(CNc3cc(OC)cc(OC)c3)[C@H](C)O2)[C@H](C)[C@@H](O[C@@H]2O[C@H](C)C[C@H](N(C)C)[C@H]2O)[C@](C)(O)C[C@@H](C)NC[C@H](C)[C@@H](O)[C@]1(C)O [syzx-76, (2R,3S,4R,5S,8R,10R,11R,12S,13S,14R)-13-[(2,6-dideoxy-3-C-methyl-3-O-methyl-4-C-[(3,5-dimethoxyphenyl-amino)-methyl]-α-L-ribopyranosyl)oxy]-2-ethyl-3,4,10-trihydroxy-3,5,8,10,12,14-hexamethyl-11-[[3,4,6-trideoxy-3-(dimethylamino)-β-D-xylo-hexopyranosy]oxy]-1-oxa-7-azacyclopentadecan-15-one]
0.25 ug/mi	0.5 ug/mi	0.25 ug/mi	2	0.25 ug/mi	CCC1OC(=O)C(C)C(OC2CC(C)(OC)C(O)(CNCc3ccc(C)o3)C(C)O2)C(C)C(OC2OC(C)CC(N(C)C)C2O)C(C)(O)CC(C)NCC(C)C(O)C1(C)O [syzx-78, (2R,3S,4R,5S,8R,10R,11R,12S,13S,14R)-13-[(2,6-dideoxy-3-C-methyl-3-O-methyl-4-C-[(5-methylfurfurylamino)-methyl]-α-L-ribopyranosyl)oxy]-2-ethyl-3,4,10-trihydroxy-3,5,8,10,12,14-hexamethyl-11-[[3,4,6-trideoxy-3-(dimethylamino)-β-D-xylo-hexopyranosy]oxy]-1-oxa-7-azacyclopentadecan-15-one]
≦0.25 ug/mi	0.25 ug/mi	≦0.25 ug/mi	2	≦0.25 ug/mi	CC[C@H]1OC(=O)[C@H](C)[C@@H](O[C@H]2C[C@@](C)(OC)[C@](O)(C=NNc3ccc(F)cc3)[C@H](C)O2)[C@H](C)[C@@H](O[C@@H]2O[C@H](C)C[C@H](N(C)C)[C@H]2O)[C@](C)(O)C[C@@H](C)NC[C@H](C)[C@@H](O)[C@]1(C)O [syzx-81, (2R,3S,4R,5S,8R,10R,11R,12S,13S,14R)-13-[(2,6-dideoxy-3-C-methyl-3-O-methyl-4-C-[(4-fluoro-phenylhydrazono)-methyl]-α-L-ribopyranosyl)oxy]-2-ethyl-3,4,10-trihydroxy-3,5,8,10,12,14-hexamethyl-11-[[3,4,6-trideoxy-3-(dimethylamino)-β-D-xylo-hexopyranosy]oxy]-1-oxa-7-azacyclopentadecan-15-one]
0.5 ug/mi	1 ug/mi	≦0.25 ug/mi	16	≦0.25 ug/mi	CC[C@H]1OC(=O)[C@H](C)[C@@H](O[C@H]2C[C@@](C)(OC)[C@](O)(CNOCc3ccccc3)[C@H](C)O2)[C@H](C)[C@@H](O[C@@H]2O[C@H](C)C[C@H](N(C)C)[C@H]2O)[C@](C)(O)C[C@@H](C)NC[C@H](C)[C@@H](O)[C@]1(C)O [syzx-82, (2R,3S,4R,5S,8R,10R,11R,12S,13S,14R)-13-[(2,6-dideoxy-3-C-methyl-3-O-methyl-4-C-[(benzyloxy-amino)-methyl]-α-L-ribopyranosyl)oxy]-2-ethyl-3,4,10-trihydroxy-3,5,8,10,12,14-hexamethyl-11-[[3,4,6-trideoxy-3-(dimethylamino)-β-D-xylo-hexopyranosy]oxy]-1-oxa-7-azacyclopentadecan-15-one]
0.5 ug/mi	0.25 ug/mi	0.25 ug/mi	2	0.5 ug/mi	CC[C@H]1OC(=O)[C@H](C)[C@@H](O[C@H]2C[C@@](C)(OC)[C@](O)(CNc3ccc(OC)cc3)[C@H](C)O2)[C@H](C)[C@@H](O[C@@H]2O[C@H](C)C[C@H](N(C)C)[C@H]2O)[C@](C)(O)C[C@@H](C)NC[C@H](C)[C@@H](O)[C@]1(C)O [syzx-83, (2R,3S,4R,5S,8R,10R,11R,12S,13S,14R)-13-[(2,6-dideoxy-3-C-methyl-3-O-methyl-4-C-[(p-methoxyphenyl-amino)-methyl]-α-L-ribopyranosyl)oxy]-2-ethyl-3,4,10-trihydroxy-3,5,8,10,12,14-hexamethyl-11-[[3,4,6-trideoxy-3-(dimethylamino)-β-D-xylo-hexopyranosy]oxy]-1-oxa-7-azacyclopentadecan-15-one]

— US9765105B2, “Macrolide compound” (Pulike Biological Engineering, Inc., priority 2013, dated 2017)
